Source: publication PMC10766610, “DCAF1-based PROTACs with activity against clinically validated targets overcoming intrinsic- and acquired-degrader resistance” (Nature Communications, 2024)
Read-outs that look alike come from different tables or passages of the source.

How the values were obtained:
[1] = target: DCAF1(WDR) + BRD9-BD(130-250) (Homo sapiens, UniProt Q9H8M2+Q9Y4B6, E1398S); assay: SPR ternary binding assay, immobilized DCAF1(WDR), BRD9-BD(130-250) in buffer
Protocol: Surface plasmon resonance (SPR) experiments were performed on Biacore T200 and 8 K+ instruments (Cytiva). […] Binary complexes were analyzed with a kinetic 1:1 fit model to obtain KD values. The fit of apparent steady state RU intensities of the ternary complexes was performed using a bell-shaped curve algorithm implemented in Graphpad Prism. […] Residence times (t1/2) were calculated by the inversion of the off-rate.

BRD9 [2] = target: T1, BRD9 (Homo sapiens, UniProt Q9H8M2); assay: BRD9-HiBiT protein abundance luminescence assay in HEK293 cells; settings: 2 h
T1 sequence (Q9H8M2 1-597): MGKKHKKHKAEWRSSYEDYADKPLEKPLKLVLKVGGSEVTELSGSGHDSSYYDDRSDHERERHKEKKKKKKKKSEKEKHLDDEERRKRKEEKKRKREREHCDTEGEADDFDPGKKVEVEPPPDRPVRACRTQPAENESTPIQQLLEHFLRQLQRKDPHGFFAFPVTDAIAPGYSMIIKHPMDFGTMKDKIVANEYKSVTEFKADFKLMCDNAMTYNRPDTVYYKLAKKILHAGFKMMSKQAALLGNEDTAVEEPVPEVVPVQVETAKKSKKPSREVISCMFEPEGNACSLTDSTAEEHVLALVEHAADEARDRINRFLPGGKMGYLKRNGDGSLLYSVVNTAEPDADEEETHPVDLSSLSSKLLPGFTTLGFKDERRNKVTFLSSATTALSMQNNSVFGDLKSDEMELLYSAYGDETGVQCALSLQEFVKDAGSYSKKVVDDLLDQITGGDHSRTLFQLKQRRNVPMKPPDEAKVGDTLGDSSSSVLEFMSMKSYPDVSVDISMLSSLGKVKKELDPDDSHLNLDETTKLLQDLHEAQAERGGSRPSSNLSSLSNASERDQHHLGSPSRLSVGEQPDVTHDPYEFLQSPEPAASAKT
Source text: HEK293/BRD9-HiBiT pools (PROMEGA # CS3023120) and HEK293/BRD7-HiBiT pools (PROMEGA # CS3023124) were purchased from Promega. We performed clonal selection for HEK293/BRD9-HiBiT cell line using single-cell sorting and screening for HiBiT expression using Nano-Glo HiBiT Lytic Detection System (Promega # N3030). The HEK293/BRD9-HiBiT clone and HEK293/BRD7-HiBiT pool to perform standard HiBiT assays.

BRD9 [3] = target: T1, BRD9; assay: Capillary western of BRD9 in 768-O cells; assay type: cell-based; settings: 768-O cells (lacking VHL), 2 h
Protocol: Protein peaks were analyzed using Compass for Simple Western version 5.0.1 (ProteinSimple), area under the curve for both α-tubulin ([…]) and BRD9 (90 kDa) per capillary was extracted and BRD9 area was normalized to α-tubulin area on a per-capillary basis before each sample was normalized to the DMSO for each run of three triplicates.

Chain of DCAF1(WDR) + BRD9-BD(130-250) (Q9Y4B6 1073-1399 E1398S, one chain of several): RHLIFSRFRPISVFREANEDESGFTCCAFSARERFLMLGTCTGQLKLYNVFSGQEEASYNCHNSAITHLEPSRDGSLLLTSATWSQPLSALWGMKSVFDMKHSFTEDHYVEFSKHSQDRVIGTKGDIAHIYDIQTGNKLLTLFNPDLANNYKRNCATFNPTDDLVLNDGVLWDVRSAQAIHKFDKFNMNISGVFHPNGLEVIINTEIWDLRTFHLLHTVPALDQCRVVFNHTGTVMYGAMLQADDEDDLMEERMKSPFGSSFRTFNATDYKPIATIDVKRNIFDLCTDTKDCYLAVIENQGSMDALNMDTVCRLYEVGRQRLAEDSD

With `COc1cc(-c2cn(C)c(=O)c3cnccc23)c(OC)cc1CN1CCC(OCCCCCC(=O)N2CCN(c3ccc4c(NCCN)nc(C5(c6ccc(Cl)cc6)CCCCC5)nc4c3)CC2)CC1` [DBr-1] the Kd ([1]; Kd1, apparent KD of first sigmoidal transition, in the presence of 0.2 µM BRD9-BD(130-250)) was 0.02 µM, the Kd ([1]; SPR KD [μM], + BRD9, with additional BRD9-BD(130-250)) was 0.005 µM and the Kd ([1]; read-out: Kd2, apparent KD of second sigmoidal transition, in the presence of 0.2 µM BRD9-BD(130-250)) was 6.11 µM. For the same molecule, the DC50 (BRD9 [2]; read-out: DC50 BRD9-HiBiT, BRD9-HiBiT/CAS9/FF cells) was 193 nM, the DC50 (BRD9 [2]; read-out: DC50 BRD9, HEK293/BRD9-HiBiT cells) was 90 nM and the DC50 (BRD9 [3]) was 1040 nM.
